Among the data in article PMC3497017, “Antioxidant and Anti-Protease Activities of Diazepinomicin from the Sponge-Associated Micromonospora Strain RV115” (Marine Drugs, 2012) are IC50 values, retold here.

For orientation: IC50 means the point on the concentration scale where inhibition reaches its midpoint. Lower therefore signals inhibition by little substance.

The assay has as its target T1, human cathepsin L (Homo sapiens, UniProt P07711).
T1 construct: gene CTSL
The experiment in a line: fluorogenic Cbz-Phe-Arg-AMC hydrolysis with inner-filter correction, confirmed by HPLC-based assay. Type of assay: biochemical.

T1 sequence (P07711 114-288): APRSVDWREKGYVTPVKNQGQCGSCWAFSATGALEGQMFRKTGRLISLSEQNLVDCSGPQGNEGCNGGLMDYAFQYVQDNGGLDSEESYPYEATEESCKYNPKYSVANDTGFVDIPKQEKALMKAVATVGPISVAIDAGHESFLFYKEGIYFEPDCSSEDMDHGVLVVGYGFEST
T1 sequence (P07711 292-333): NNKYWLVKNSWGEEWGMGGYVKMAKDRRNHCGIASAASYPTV

`CC(C)=CCC/C(C)=C/CC/C(C)=C/CN1C(=O)c2cccc(O)c2Nc2c(O)cc(O)cc21` [compound 1, diazepinomicin] displayed a half-maximal inhibitory concentration (IC50) of 72.4 ± 5.3 µM.
